Results published in patent publication US20220354844A1, “METHODS OF TREATING METABOLIC DISEASES WITH FUSED BICYCLIC PYRAZOLES” (Belite Bio, Inc, priority 2017, published 2022).
Where “and” joins values, the source holds several entries; their conditions need not be identical. Equal entries are not always repeated. Where two headings read alike, the source gives them in different places.

Assays:
[1] = Compound 2 single dose rat PK study; type: in vivo, male Sprague Dawley rats; details: for Vd: read-out: Vss
Experimental: A pharmacokinetic study of Compound 2 following a single intravenous or oral dose administration to male Sprague Dawley rats was conducted, the results of which are found in Table 5 and FIGS. 21-24.

[2] = tested on: Subjects with NAFLD or NASH; assay: Treatment of NAFLD and NASH in humans; type: in vivo, human; details: 50 or 100 mg/day for 6 months
Experimental: Subjects with NAFLD or NASH are treated with doses of either 50 or 100 mg/day of compound 1 or 2 for 6 months. Subjects are permitted their usual other medications (e.g. antidiabetic medications such as metformin or […]) but not glitazones, PPAR agonists, OCA, or similar medications. The subjects are assessed before the study, and at intervals during the study, such as every 4 weeks during the study and 4 weeks after the last dose of compound 1 or 2, for safety and pharmacodynamic evaluations.
MRIs of the subjects' livers are taken every 4 weeks during the study and 4 weeks after completion of compound 1 or 2 dosing, to determine hepatic fat; and liver biopsies are taken before the study (to establish the diagnosis) and 4 weeks after completion of compound 1 or 2 dosing. At each visit, after a 12-hour fast, blood is drawn and urine collected; and a standard metabolic panel, complete blood count, and standard urinalysis are performed. Blood is analyzed for total cholesterol, HDL-C, LDL-C, VLDL-C, TGs, apoB, and liver transaminases. The subjects also maintain health diaries, which are reviewed at each visit.

[3] = male, Sprague Dawley, plasma, iv, 2 mg/kg, single iv dose 2 mg/kg, Mean of the 3 rats
[4] = male, Sprague Dawley, plasma, iv, 2 mg/kg, single iv dose 2 mg/kg, individual rats
[5] = male, Sprague Dawley, plasma, po, 5 mg/kg, single po dose 5 mg/kg, Mean of the 3 rats
[6] = male, Sprague Dawley, plasma, po, 5 mg/kg, single po dose 5 mg/kg, individual rats
[7] = single iv dose 2 mg/kg, individual rats, 2 mg/kg
[8] = single po dose 5 mg/kg, individual rats, 5 mg/kg

AUC(0-inf) [1, 3]: 5750 ng·h/mL | AUC(0-t) [1, 3]: 5720 ng·h/mL | MRT inf [1, 3]: 2.3 h | MRT last [1, 3]: 2.2 h | clearance [1, 3]: 3.17 mL/min/kg | half-life [1, 3]: 6.6 h | Tmax ([1]; male, Sprague Dawley, plasma, iv, 2 mg/kg, single iv dose 2 mg/kg, Mean of the 3 rats, first plasma collection time or observed time of highest plasma concentration): 0.22 h | Cmax ([1]; male, Sprague Dawley, plasma, iv, 2 mg/kg, single iv dose 2 mg/kg, Mean of the 3 rats, read-out: Cmax): 2840 ng/mL | Vd [1, 3]: 0.436 L/kg | MRT inf [1, 4]: 2.1 h | MRT last [1, 4]: 2 h | half-life [1, 4]: 7.1 h | Cmax ([1]; male, Sprague Dawley, plasma, iv, 2 mg/kg, single iv dose 2 mg/kg, individual rats, read-out: Cmax): 2920 ng/mL | Vd [1, 4]: 0.421 L/kg | AUC(0-inf) [1, 5]: 6410 ng·h/mL | AUC(0-t) [1, 5]: 6370 ng·h/mL | MRT inf [1, 5]: 4.8 h | MRT last [1, 5]: 4.5 h | Tmax [1, 5]: 0.5 h | half-life [1, 5]: 8 h | Cmax ([1]; male, Sprague Dawley, plasma, po, 5 mg/kg, single po dose 5 mg/kg, Mean of the 3 rats, read-out: Cmax): 1600 ng/mL | AUC(0-inf) [1, 6]: 5340 ng·h/mL | AUC(0-t) [1, 6]: 5280 ng·h/mL | MRT inf [1, 6]: 5 h | MRT last [1, 6]: 4.5 h | Tmax [1, 6]: 0.5 h | half-life [1, 6]: 10.9 h | Cmax ([1]; male, Sprague Dawley, plasma, po, 5 mg/kg, single po dose 5 mg/kg, individual rats, read-out: Cmax): 1530 ng/mL | Cl [1, 7]: 2.05 mL/min/kg | Cmax [1, 7]: 3275 ng/mL and 2320 ng/mL | MRTinf [1, 7]: 2.6 h and 2.3 h | MRTlast [1, 7]: 2.5 h and 2.1 h | Vss [1, 7]: 0.315 L/kg and 0.572 L/kg | t1/2 [1, 7]: 7.0 h and 5.7 h | F ([1]; single po dose 5 mg/kg, Mean of the 3 rats): 44.6% | AUCLAST [1, 8]: 8392 ng·h/mL and 5435 ng·h/mL | AUCinf [1, 8]: 8434 hr · ng/m1 and 5452 hr · ng/m1 | Cmax [1, 8]: 2036 ng/mL and 1240 ng/mL | F [1, 8]: 37.2% and 58.7% and 38.0% | MRTinf [1, 8]: 5.4 h and 4.1 h | MRTlast [1, 8]: 5.1 h and 4.0 h | t1/2 [1, 8]: 7.7 h and 5.5 h
SMILES: CC(=O)N1Cc2[nH]nc(C(=O)N3CCC(c4ccc(F)c(F)c4C(F)(F)F)CC3)c2C1 [Compound 2, 1-(3-(4-(3,4-difluoro-2-(trifluoromethyl)phenyl)piperidine-1-carbonyl)-4,6-dihydropyrrolo[3,4-c]pyrazol-5(1H)-yl)ethan-1-one]
AUCLAST [1, 7]: 5039 ng·h/mL and 8134 ng·h/mL and 3994 ng·h/mL | improvement in their disease, as manifested by MRI and liver biopsy [2]: dose-related improvement
